Reference: publication PMC10975719, “Tobramycin Reduces Pulmonary Toxicity of Polymyxin B via Inhibiting the Megalin-Mediated Drug Uptake in the Human Lung Epithelial Cells” (Pharmaceutics, 2024)
Read-outs that look alike come from different tables or passages of the source. Blank lines part the entries; values can stand above or below the compound they belong to. Bridge positions count the residues as written; N and C are the ends. Square brackets hold non-standard residues; d marks the D form. Peptide text beside a SMILES is read from it. * marks the point of attachment. X1 = CC[C@H](C)CCCCC(=O)*; Dab = NCC[C@H](N)C(=O)O

Key:
[1] = test system: human lung epithelial Calu-3 cells; assay type: cell-based
Description: Assessment of cytotoxicity was performed using aqueous solutions of polymyxin B, tobramycin, and the combination of both in human lung epithelial Calu-3 cells. This cytotoxicity assessment aimed to determine safe drug concentrations for the transport and imaging experiments. Cells were seeded in 96-well flat bottom plate (Corning, NY, USA) at a density of 2 × 10^5 cells/mL. A wide concentration range was chosen, considering a molar ratio of 1:5 polymyxin B to tobramycin based on the literature. Lactate dehydrogenase (LDH) assay was used for the measurement of cytotoxicity. Vehicle-treated cells were considered as the negative control, while 10× lysis buffer treated cells were employed as the positive control. For the imaging study, Calu-3 cells were cultured in a 35 mm glass bottom culture dish at a density of 2 × 10^5 cells/mL and were treated with a vehicle, tobramycin 700 mg/L, polymyxin B 300 mg/L, and the combination. After treatment, cells were washed with PBS and stained with PI (100 ng/mL) and DAPI (1 mg/L) for 30 min in dark. Cells were washed again with PBS and mounted for imaging with Calu-3 cell culture media.

[2] = test system: Calu-3 cells; assay: Cellular uptake of polymyxin B by confocal microscopy (anti-polymyxin B antibody, Alexa 647); assay type: cell-based, human; conditions: 4 h
Description: Polymyxin B distribution in the Calu-3 cell monolayer was investigated using confocal laser scanning microscopy (CLSM). At the end of the transport process, the Calu-3 cell monolayer was prepared for imaging. The cell monolayer was washed with phosphate-buffered saline after treatment and fixed with 4% paraformaldehyde for 15 min. The cell monolayer was then permeabilized with 0.1% triton X-100 for 10 min and blocked with 3% goat serum in 0.1% triton X-100 for 2 h. To stain intracellular polymyxin B, the cell monolayer was then incubated overnight with mouse anti-polymyxin B antibody at 4 °C in the dark. After overnight incubation, the cell monolayer was incubated with goat anti-mouse IgG conjugated with Alexa Flour™ 647 for 2 h at room temperature. The nuclei were stained with Hoechst 33342.
For the drug accumulation study, Calu-3 cells were cultured in a glass bottom 35 mm dish (Ashland, MA, USA) and were incubated with 30 mg/L polymyxin B in the absence and presence of 70 mg/L tobramycin for 4 h. […] For the drug accumulation study, the background subtracted integrated density of Alexa Flour 647 (for polymyxin B) was calculated and data were presented as mean polymyxin B intensity per cell. Cell numbers per imaging field were counted using the Hoechst 33342 intensity and ImageJ “cell counter” Macro (ImageJ version 2.9).

[3] = test system: Calu-3 cell monolayer; assay: Transport in Calu-3 cell monolayer in presence of megalin inhibitor sodium maleate; assay type: in vitro ADME, human; conditions: for cellular accumulation / remaining in the apical chamber / intracellular accumulation normalized to protein: 2 h; for intracellular accumulation normalized to protein: Calu-3 monolayer lysate (RIPA)
Description: The transport behavior of polymyxin B and tobramycin in the Calu-3 cell monolayer were also evaluated in the presence of 8 mg/mL of sodium maleate, an agent known to inhibit megalin receptors via shedding of the megalin protein [23]. Calu-3 cell monolayer in trans-well inserts was formed following our previously published ALI culture protocol. Cell monolayers were pre-incubated with 8 mg/mL of sodium maleate for 4 h and were subsequently incubated with polymyxin B and tobramycin for 2 h. Samples were collected from the apical and basal chambers of the ALI culture system, analyzed using an LC-MS/MS system, and the drug content was calculated. The cell monolayer was then lysed with lysis buffer (RIPA buffer, Catalogue 89900, Thermofisher Scientific, Waltham, MA, USA) and cellular drug content was measured. Cell lysate (25 µL) from each sample was used for protein measurement. The amount of drug accumulated in the cell was normalized according to the amount of protein present in the samples. Polymyxin B and tobramycin concentrations in the samples, in the presence and absence of the megalin inhibitor sodium maleate, were plotted and statistical significance was calculated using Graph Pad Prism (version 9).

[4] = test system: Calu-3 cell monolayer; assay: Transport study in air liquid interface Calu-3 cell monolayer; conditions: LC-MS/MS; for transport rate, apparent permeability coefficient (Papp), in combination compared to drug alone / amount remaining in the apical chamber, combination compared to drug alone / transport from apical chamber to basal medium: Calu-3 ALI monolayer; for transport rate, apparent permeability coefficient (Papp), in combination compared to drug alone: apical to basal, polymyxin B 30 mg/L + tobramycin 70 mg/L vs each alone, p < 0.0001; for transport rate, apparent permeability coefficient (Papp), in combination compared to drug alone / transport from apical chamber to basal medium / accumulation in Calu-3 cell monolayer: HBSS; for amount remaining in the apical chamber, combination compared to drug alone: after 4 h of transport study; for transport from apical chamber to basal medium: 4 h; for accumulation in Calu-3 cell monolayer: at 4 h
Description: Human lung epithelial Calu-3 cells were grown in a 6.5 mm cell culture insert in a trans-well plate for 3 days using both apical and basal media. The apical media was withdrawn to let the cells grow in an air liquid interface (ALI). The system was maintained for 14 days, with the basal media changed every other day. The culture medium was DMEM/F-12 supplemented with 10% (v/v, FBS) and 1% (v/v) nonessential amino acid, and penicillin and streptomycin (100 units/mL of penicillin and 100 mg/L of streptomycin). After 14 days of differentiation at the ALI condition, the trans-epithelial electrical resistance (TEER) value was measured to investigate the integrity of the formed Calu-3 monolayer.
The transport study was conducted in the Calu-3 cell monolayer according to our previously published ALI culture protocol. TEER values were measured before and after the transport study to ensure the cell monolayer integrity was maintained. As the transport process was done in HBSS buffer, the drug solution was also prepared in HBSS buffer. The cell monolayer inserts were incubated with HBSS buffer for 30 min to equilibrate. The following drug solutions were used in the transport process: polymyxin B 30 mg/L, tobramycin 70 mg/L, and the combination of polymyxin B 30 mg/L and tobramycin 70 mg/L. An aliquot of 200 µL of drug solution was added to the apical chamber and 600 µL of HBSS buffer was added to the basal chamber. The samples were collected from the basal chamber every hour for a total of 4 h and the basal chamber was refilled with fresh HBSS buffer. Transported drug from the basal chamber, remaining drug from the apical chamber, and drug accumulated in the cell monolayer were extracted and analyzed using a reversed-phase LC/MS system. Drug extraction and LC/MS analysis was performed according to a previously published protocol.
For the transported samples, all buffer in the basal chamber was collected to a centrifuge tube. Colistin (1 mg/L) was added as the internal standard, and formic acid (0.1%, v/v) was added to each sample. For drug analysis in the cell, the insert was cut using a sharp scalpel. The cells in the membrane were lysed overnight with RIPA buffer and 200 µL of each sample was used to extract the drug using a protein precipitation method. Acetonitrile (400 µL) was added to the cell lysate and vortexed well to precipitate all the protein. Internal standard and formic acid were added to the samples as previously described, vortexed well, and centrifuged before transferring the supernatant into the injection vial.
The drugs were analyzed using an LC-MS/MS equipped with a C18 column (2.6 μm, 50 mm × 3 mm), a liquid chromatography system (Agilent 1200, Santa Clara, CA, USA), and a triple quadrupole mass spectrometer (Agilent 6460 QQQ, Santa Clara, CA, USA) with an electrospray ionization source. The mobile phase was 0.1% formic acid solution in water (90%) and 0.1% formic acid solution in acetonitrile (10%) with a flow rate of 0.6 mL/min. A gradient elution procedure was used, and each component was measured via multiple reaction monitoring (MRM) in the positive ionization mode (Table 1).

[5] = target: T1, megalin (Homo sapiens, UniProt P98164); assay: Megalin substrate FITC-BSA uptake by Calu-3 cells, confocal microscopy; assay type: cell-based; conditions: 4 h; for ratio of FITC-BSA to nucleus integrated density: 100 mg/L FITC-BSA, Calu-3 cells, FITC-BSA only 0.58 ± 0.04; for effect on cellular uptake of FITC-BSA: polymyxin B 30 and 60 mg/L, tobramycin 70 and 140 mg/L
T1 construct: endogenous in cells; host or cells: Calu-3 (human lung epithelial cells)
Description: As albumin is an endogenous substrate of megalin [30], cellular distribution of fluorescein-labeled BSA (FITC-BSA) was evaluated in the presence of polymyxin B and tobramycin to investigate the functional activity of megalin in Calu-3 cells. Calu-3 cells were grown in an eight-well chamber slide at a density of 2 × 10^5 cell/mL in 10% FBS supplemented DMEM/F-12 cell culture media. After overnight incubation at 37 °C and 5% CO2, cells were washed to remove old media and were incubated for 4 h with 100 μg/mL of FITC-BSA in fresh cell culture media and in the presence and absence of polymyxin B (30 and 60 mg/L) and tobramycin (70 and 140 mg/L). After 4 h, cells were washed and stained with Hoechst for nucleus staining and cell mask deep red for cell membrane staining. Cells were finally washed and covered with Prolong gold antifade mounting reagent and mounted on a 60× oil immersion objective for imaging. Images were taken with a Nikon Eclipse T1 confocal microscope. Images were processed with Nikon (NIS-Elements) and Image J (version 1.54) software.

[6] = test system: renal cortex; conditions: 400 mg/kg of sodium maleate administration, within 3 h after injection; cited from earlier work
[7] = drug alone, without sodium maleate, Calu-3 ALI monolayer, LC-MS/MS
[8] = with sodium maleate 8 mg/mL (4 h pre-incubation), Calu-3 ALI monolayer, LC-MS/MS
[9] = combination (polymyxin B 30 mg/L + tobramycin 70 mg/L), p < 0.0001 vs alone
[10] = drug alone (polymyxin B 30 mg/L or tobramycin 70 mg/L), cell lysate RIPA

T1 sequence (P98164 26-4655): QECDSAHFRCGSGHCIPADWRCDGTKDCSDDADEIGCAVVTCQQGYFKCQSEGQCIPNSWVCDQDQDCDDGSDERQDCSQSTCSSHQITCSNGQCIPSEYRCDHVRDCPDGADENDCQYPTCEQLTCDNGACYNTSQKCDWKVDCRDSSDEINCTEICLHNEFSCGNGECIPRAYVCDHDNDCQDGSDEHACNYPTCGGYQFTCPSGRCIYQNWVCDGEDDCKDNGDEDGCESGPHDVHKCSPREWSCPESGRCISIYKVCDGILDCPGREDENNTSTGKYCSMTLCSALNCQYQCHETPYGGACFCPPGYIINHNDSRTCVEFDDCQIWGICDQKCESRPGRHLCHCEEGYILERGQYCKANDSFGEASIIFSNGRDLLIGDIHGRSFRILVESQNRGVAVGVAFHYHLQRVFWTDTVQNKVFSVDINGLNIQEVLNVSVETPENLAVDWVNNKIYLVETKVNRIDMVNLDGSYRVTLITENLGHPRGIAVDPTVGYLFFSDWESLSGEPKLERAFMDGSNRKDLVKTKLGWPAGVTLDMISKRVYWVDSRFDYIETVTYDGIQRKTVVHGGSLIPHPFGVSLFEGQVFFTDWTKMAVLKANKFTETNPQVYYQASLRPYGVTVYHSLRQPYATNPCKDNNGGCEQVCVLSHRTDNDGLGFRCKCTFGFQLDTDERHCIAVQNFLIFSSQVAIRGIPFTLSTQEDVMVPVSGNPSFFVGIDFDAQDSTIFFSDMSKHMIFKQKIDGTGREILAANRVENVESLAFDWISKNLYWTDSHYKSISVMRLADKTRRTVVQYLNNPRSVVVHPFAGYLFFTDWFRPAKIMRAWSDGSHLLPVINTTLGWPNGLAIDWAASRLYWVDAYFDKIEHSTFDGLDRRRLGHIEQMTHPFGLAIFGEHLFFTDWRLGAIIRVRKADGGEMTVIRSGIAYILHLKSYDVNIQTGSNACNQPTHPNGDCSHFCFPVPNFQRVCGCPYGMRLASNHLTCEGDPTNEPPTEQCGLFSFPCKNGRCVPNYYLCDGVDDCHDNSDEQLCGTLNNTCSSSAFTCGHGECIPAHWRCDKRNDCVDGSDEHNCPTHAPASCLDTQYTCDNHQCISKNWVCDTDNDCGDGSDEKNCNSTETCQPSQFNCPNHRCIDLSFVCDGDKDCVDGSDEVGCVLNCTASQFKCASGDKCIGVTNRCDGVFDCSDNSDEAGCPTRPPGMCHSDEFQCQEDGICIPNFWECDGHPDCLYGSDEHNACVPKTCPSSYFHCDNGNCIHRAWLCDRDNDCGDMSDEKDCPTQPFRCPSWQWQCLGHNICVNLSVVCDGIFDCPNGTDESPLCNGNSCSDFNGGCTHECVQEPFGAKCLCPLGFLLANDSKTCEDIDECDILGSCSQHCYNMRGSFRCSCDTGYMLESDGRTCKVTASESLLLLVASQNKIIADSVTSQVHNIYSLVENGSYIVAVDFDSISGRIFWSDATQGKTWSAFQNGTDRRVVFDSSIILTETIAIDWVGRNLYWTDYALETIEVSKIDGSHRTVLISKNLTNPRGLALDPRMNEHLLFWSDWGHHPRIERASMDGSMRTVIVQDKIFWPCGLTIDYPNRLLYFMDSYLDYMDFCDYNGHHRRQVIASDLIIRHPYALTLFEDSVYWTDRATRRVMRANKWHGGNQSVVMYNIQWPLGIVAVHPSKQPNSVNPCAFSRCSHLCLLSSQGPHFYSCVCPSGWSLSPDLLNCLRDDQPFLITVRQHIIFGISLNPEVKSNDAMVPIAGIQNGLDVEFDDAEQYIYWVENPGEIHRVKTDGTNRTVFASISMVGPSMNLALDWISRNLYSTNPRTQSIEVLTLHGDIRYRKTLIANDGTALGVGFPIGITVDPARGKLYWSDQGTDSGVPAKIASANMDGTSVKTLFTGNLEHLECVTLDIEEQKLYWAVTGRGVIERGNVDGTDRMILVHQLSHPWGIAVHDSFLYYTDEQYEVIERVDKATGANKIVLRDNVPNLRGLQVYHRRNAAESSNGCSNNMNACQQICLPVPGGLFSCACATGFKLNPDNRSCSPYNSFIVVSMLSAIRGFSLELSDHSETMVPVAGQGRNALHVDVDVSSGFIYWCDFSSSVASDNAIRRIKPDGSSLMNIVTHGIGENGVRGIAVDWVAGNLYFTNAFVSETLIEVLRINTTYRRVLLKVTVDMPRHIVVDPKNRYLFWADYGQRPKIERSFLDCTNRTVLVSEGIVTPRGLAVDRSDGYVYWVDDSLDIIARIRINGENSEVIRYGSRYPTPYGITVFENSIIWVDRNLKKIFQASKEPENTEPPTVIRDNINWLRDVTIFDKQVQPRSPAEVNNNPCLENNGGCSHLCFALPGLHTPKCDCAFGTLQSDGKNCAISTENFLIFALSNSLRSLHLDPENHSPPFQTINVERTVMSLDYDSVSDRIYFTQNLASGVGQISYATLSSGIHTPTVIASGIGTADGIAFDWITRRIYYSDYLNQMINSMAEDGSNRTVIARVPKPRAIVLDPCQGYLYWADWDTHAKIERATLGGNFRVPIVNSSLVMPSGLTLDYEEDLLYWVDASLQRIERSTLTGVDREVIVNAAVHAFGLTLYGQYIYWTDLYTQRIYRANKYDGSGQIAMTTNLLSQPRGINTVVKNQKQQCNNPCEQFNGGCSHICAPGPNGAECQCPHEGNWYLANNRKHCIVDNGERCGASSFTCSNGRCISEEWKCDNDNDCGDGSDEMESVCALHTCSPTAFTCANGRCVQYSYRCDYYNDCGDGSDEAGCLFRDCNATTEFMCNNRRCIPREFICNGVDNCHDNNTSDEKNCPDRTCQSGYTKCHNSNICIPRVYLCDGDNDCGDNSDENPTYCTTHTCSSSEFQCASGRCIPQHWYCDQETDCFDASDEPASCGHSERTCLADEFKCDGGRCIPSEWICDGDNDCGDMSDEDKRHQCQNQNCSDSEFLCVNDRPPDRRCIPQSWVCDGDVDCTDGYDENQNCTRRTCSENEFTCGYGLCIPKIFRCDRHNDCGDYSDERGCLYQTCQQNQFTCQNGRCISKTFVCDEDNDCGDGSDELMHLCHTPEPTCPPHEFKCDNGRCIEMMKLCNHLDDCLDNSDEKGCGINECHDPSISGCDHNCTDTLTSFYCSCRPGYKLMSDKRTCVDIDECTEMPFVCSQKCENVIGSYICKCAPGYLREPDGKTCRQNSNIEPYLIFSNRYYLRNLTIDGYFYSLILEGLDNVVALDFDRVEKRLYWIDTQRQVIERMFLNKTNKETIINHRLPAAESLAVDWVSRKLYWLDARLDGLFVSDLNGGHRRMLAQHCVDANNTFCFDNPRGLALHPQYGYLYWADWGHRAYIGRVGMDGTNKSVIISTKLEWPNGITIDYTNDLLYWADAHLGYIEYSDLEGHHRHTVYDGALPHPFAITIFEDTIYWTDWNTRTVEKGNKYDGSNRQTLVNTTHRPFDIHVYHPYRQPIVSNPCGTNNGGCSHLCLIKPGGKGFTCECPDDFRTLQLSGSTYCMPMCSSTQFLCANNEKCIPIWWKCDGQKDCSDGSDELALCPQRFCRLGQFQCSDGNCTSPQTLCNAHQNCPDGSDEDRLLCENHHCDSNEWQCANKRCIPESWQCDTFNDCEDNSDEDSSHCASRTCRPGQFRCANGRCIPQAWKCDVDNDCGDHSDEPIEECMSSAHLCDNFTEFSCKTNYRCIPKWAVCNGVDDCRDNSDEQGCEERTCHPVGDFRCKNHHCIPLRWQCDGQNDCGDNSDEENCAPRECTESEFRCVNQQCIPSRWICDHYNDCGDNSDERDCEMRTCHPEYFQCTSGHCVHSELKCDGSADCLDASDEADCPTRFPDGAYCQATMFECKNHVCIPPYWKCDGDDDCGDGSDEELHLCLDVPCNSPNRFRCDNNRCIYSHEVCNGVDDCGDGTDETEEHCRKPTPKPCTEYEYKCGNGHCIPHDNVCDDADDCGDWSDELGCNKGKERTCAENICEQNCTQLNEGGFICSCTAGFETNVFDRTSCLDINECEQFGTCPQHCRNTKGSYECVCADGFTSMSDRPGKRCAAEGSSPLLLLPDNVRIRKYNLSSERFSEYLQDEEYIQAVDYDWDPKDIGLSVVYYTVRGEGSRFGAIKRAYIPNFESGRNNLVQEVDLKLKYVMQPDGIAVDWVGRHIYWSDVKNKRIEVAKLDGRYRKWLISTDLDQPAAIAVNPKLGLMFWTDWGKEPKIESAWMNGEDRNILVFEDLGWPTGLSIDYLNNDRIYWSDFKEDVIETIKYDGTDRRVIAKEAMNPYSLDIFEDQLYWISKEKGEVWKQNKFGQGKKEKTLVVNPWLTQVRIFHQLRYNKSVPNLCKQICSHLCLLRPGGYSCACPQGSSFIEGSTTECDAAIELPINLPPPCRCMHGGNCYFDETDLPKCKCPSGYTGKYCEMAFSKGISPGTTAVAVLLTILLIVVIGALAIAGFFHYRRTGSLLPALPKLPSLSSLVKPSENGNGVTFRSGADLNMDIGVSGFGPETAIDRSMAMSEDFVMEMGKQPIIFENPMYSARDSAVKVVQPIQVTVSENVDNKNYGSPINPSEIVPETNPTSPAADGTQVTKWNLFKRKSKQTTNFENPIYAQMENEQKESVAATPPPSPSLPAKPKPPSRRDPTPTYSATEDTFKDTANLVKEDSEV

Compound: CC[C@H](C)CCCCC(=O)N[C@@H](CCN)C(=O)N[C@H](C(=O)N[C@@H](CCN)C(=O)N[C@H]1CCNC(=O)[C@H]([C@@H](C)O)NC(=O)[C@H](CCN)NC(=O)[C@H](CCN)NC(=O)[C@H](CC(C)C)NC(=O)[C@@H](Cc2ccccc2)NC(=O)[C@H](CCN)NC1=O)[C@@H](C)O [polymyxin B, Polymyxin B] (X1-[Dab]T[Dab][Dab][Dab][dF]L[Dab][Dab]T; lactam 4-C)
safety of concentrations chosen for the transport study ([1]; 30 mg/L polymyxin B alone, 70 mg/L tobramycin alone, and their combination, based on cell viability data): safe
cell death compared to the control ([1]; at 300 mg/L, LDH assay): significant cell death
PI intensity ([1]; polymyxin B 300 mg/L treated Calu-3 cells, mean ± SD (n = 3), p < 0.001 vs control): 4334.0 ± 1131.6
polymyxin B intensity per cell ([2]; combination polymyxin B 30 mg/L + tobramycin 70 mg/L, mean ± SD, p < 0.001 vs polymyxin B alone): 932.3 ± 136.0
polymyxin B intensity per cell ([2]; polymyxin B 30 mg/L alone, Alexa 647, mean ± SD, saline control 113.0 ± 13.6): 2259.3 ± 309.4
cellular accumulation [3, 7]: 26.5 ± 2.1%
remaining in the apical chamber [3, 7]: 59.9 ± 1.2%
transported from the apical chamber to the basal chamber ([3]; drug alone, without sodium maleate, Calu-3 ALI monolayer, 2 h incubation, LC-MS/MS): 13.5 ± 1.6%
transported from the apical chamber to the basal chamber ([3]; in the presence of sodium maleate 8 mg/mL (4 h pre-incubation), Calu-3 ALI monolayer, 2 h incubation, LC-MS/MS): 8.2 ± 0.9%
cellular accumulation [3, 8]: 8.1 ± 0.4%
remaining in the apical chamber [3, 8]: 83.7 ± 1.3%
intracellular accumulation normalized to protein ([3]; with sodium maleate 8 mg/mL (4 h pre-incubation), LC-MS/MS): 1.9 ± 0.04 ng/µg of protein
intracellular accumulation normalized to protein ([3]; without sodium maleate, LC-MS/MS): 6.0 ± 0.8 ng/µg of protein
transport rate, apparent permeability coefficient (Papp), in combination compared to drug alone [4]: decreased significantly
amount remaining in the apical chamber, combination compared to drug alone [4]: Significantly higher amounts
transport from apical chamber to basal medium [4, 9]: 3.9 ± 0.3%
accumulation in Calu-3 cell monolayer [4, 9]: 6.4 ± 0.1%
accumulation in Calu-3 cell monolayer [4, 10]: 21.4 ± 2.0%
transport from apical chamber to basal medium ([4]; drug alone (polymyxin B 30 mg/L), 30 min equilibration): 7.1 ± 0.4%
ratio of FITC-BSA to nucleus integrated density ([5]; 30 mg/L polymyxin B): 0.36 ± 0.03
ratio of FITC-BSA to nucleus integrated density ([5]; 60 mg/L polymyxin B): 0.29 ± 0.02
effect on cellular uptake of FITC-BSA [5]: prevented the cellular uptake of FITC-BSA in a concentration-dependent manner

Compound: O=C([O-])/C=C\C(=O)[O-].[Na+].[Na+] [sodium maleate]
decrease of renal cortex accumulation of amikacin [6]: 50%

transported from the apical chamber to the basal chamber [3]: 11.9 ± 1.3%
transport rate, apparent permeability coefficient (Papp), in combination compared to drug alone [4]: decreased significantly
amount remaining in the apical chamber, combination compared to drug alone [4]: Significantly higher amounts
accumulation in Calu-3 cell monolayer [4, 9]: 3.8 ± 0.8%
accumulation in Calu-3 cell monolayer [4, 10]: 13.2 ± 4.3%
ratio of FITC-BSA to nucleus integrated density ([5]; 70 mg/L tobramycin): 0.41 ± 0.02
ratio of FITC-BSA to nucleus integrated density ([5]; 140 mg/L tobramycin): 0.30 ± 0.02
Compound: NC[C@H]1O[C@H](O[C@H]2[C@H](O)[C@@H](O[C@H]3O[C@H](CO)[C@@H](O)[C@H](N)[C@H]3O)[C@H](N)C[C@@H]2N)[C@H](N)C[C@@H]1O [tobramycin]
reduction in viability of Calu-3 cells compared to the control [1]: did not result in any reduction in the viability
effect on cellular uptake of FITC-BSA [5]: prevented the cellular uptake of FITC-BSA in a concentration-dependent manner
